Experimental data as given in US20240408175A1, “BMP9 OR AN AGONIST THEREOF AND ITS USES RELATED TO REDUCING METASTASIS OF CANCER” (THE UAB RESEARCH FOUNDATION, priority 2021, published 2024).

Experiments:
PA1 cells = experiment: Sulforhodamine B (SRB) growth assay, attached 2D; type: cell-based, human; settings: 10 nM, 3 days
Method: Growth of cells was monitored by seeding 1,000 cells per well in a 96 well plate, followed by treatment with 10 nM BMP2/9 for indicated times. At endpoint, medium was shaken out from plates, followed by addition of cold 10% trichloroacetic acid in each well, and incubation at 4° C. for 10 minutes. Five sequential wash steps were performed by complete immersion in water and shake out of the water from the plate. Next, 0.4% sulforhodamine B (SRB) in 1% acetic acid was added to each well and incubated at room temperature for 10 minutes. Five washed were done by complete immersion in 1% acetic acid followed by complete removal of the remaining wash. Plates were air dried overnight. Finally, 200 mL of 20 mM Tris pH 10 (unbuffered) was added to each well and plate rocked on a rotary shaker for 1-2 hours and absorbance measured at 570 nm with a plate reader (Vichai and Kirtikara, 2006).

PA1-luc-GFP cells = experiment: PA1-luc-GFP intraperitoneal xenograft; type: in vivo, NOD-SCID mice
Method: All animal studies were performed in accordance with the Institutional Animal Care and Use Committee at the University of Alabama Birmingham. Female SCID mice (Key resources table) at 5-7 weeks of age were housed under pathogen-free conditions at the Animal Research Facility at UAB. 1.5×10^6 GFP-luciferase SK-OV3 cells or 3×10^6 GFP-luciferase expressing PA1 cells were intraperitoneally injected. Mice were monitored daily, with girth and weight measurement taken twice a week. Tumor progression was tracked weekly using the IVIS Lumina III In vivo Imaging System (Caliper Life Sciences, MA) at UAB's Small Animal Imaging Facility. rhBMP9 was administered at the time of tumor cell injection followed by daily intraperitoneal (i.p.) injections of 1 mg/mL in 4 mM HCl+PBS+DI water (Vehicle), to achieve a final 5 mg/kg dose. For metastasis and tumor growth analysis, mice were euthanized between 21-50 days depending on the cell line. At necropsy, ascites, if present, were collected and volumes measured when possible, tumor weights in the omentum and other organs were recorded and collected when possible. For survival studies, mice that reached end-point criteria, including continued weight loss, respiratory trouble and permanent recumbency were euthanized. For microscopic analysis of tissues, formalin-fixed tissues were processed, paraffin-embedded, and sectioned at 5 μm thickness and H&E stained at UAB's histology core.
IHC was performed using the BioCare Mach4 Universal Detection Kit. Specifically, anti-SOX2 was diluted in Da Vinci Green Diluent and incubated overnight at 4° C. in a humidified chamber. HRP was detected with 3,30-diaminobenzidine (DAB) substrate for 4 minutes. TUNEL staining was performed according to the manufacturer's instruction. Slides were examined and images captured with EVOS M7000 microscope. Cell profiler (Stirling et al., 2021) and Image J Fiji software were used for image quantification.

[1] = ELISA of BMP9 in plasma from mice; type: in vivo; settings: PA1-luc-GFP mice, daily i.p. administration
OCT4 or NANOG = experiment: qRT-PCR of OCT4 and NANOG under 3D condition; type: cell-based, human; settings: PA1 cells
Method: Lysate and RNA preparation: 100,000-300,000 cells were seeded in a poly-HEMA coated 6-well plate for indicated times in full serum unless indicated otherwise. Cells were collected by centrifugation and lysed with trizol for RNA extraction or direct 2× lysis buffer for protein lysates.

[2] = test system: 1-kb SOX2 promoter reporter; experiment: pGL3-SOX2 promoter-reporter luciferase assay in HEK293 cells; type: cell-based, human; settings: 10 nM, 24 hours, serum-free
Method: HEK293 cells were transfected with the pGL3-SOX2 promoter-luciferase reporter plasmid construct and SV40-renilla for 24h. […] According to the manufacturer's instruction, cells were collected and lysed in […] passive lysis buffer. To measure luciferase activity, […] of lysate was added to […] of dual Luciferase Assay Reagent, and luminescence was quantitated using a luminometer (Biotek).

SOX2 promoter = experiment: Chromatin immunoprecipitation (ChIP) at SOX2 promoter regions; type: cell-based, human
Method: ChIP was carried out using a modified version of a previously described protocol (Medeiros et al., 2009). Cells were grown to 80% confluency in 150 mm culture dishes. Cells were fixed at room temperature in 1% Paraformaldehyde solution (dilute 8% PFA in serum free media to get 1%) and rocked for 10 minutes. 10×Glycine was added to the plate and allowed to sit for 5 minutes at room temperature. Cells were scraped down and cell suspension were transferred to a cold centrifuge tube for centrifugation at 720 RCF at 4° C. for 10 minutes. Cells were rinsed with 1X Phosphate buffer saline and centrifugation repeated. Cell pellet was next resuspended in lysis buffers described in (Medeiros et al., 2009) to obtain nuclei pellet. This was followed by chromatin sonication, using QSonica sonicator (model CL-188) for four cycles (30% amplitude for 15 secs ON and 30 secs OFF) to obtain DNA fragments with a length from 150 to 300 bp. 1/10th of the supernatant was stored as input control. ChIP was performed using Protein A magnetic beads (Dynabeads, Invitrogen #10001D) to couple […] ChIP-grade antibodies for SMAD1, SMAD3, H3K27me3, H3K4me3, or rabbit IgG antibody overnight at 4 °C. DNA was purified using the PureLink Quick PCR Purification kit (Thermo Fisher Cat #: K310001) and enrichment of DNA fragments analyzed via relative quantitative RT-PCR (qPCR) using ChIP primers (see Table 2) to specific locations. Negative and positive control regions were included in all analysis.

HEY parental cells = experiment: Cell survival under anchorage independence, HEY parental; type: cell-based, human; settings: 1, 5, 10 nM for 24, 48, and 72 hours
Method: (§1) For Live/Dead analysis under anchorage independence, 1,000 cells were seeded in 96-well hydrogel-coated ultra-low attachment (ULA) plates (Corning #4515) for times indicated. Growth factor treatment was done under low serum 2.5% FBS condition (Cells were plated in 10% FBS to allow spheroid formation before beginning treatment). Cells were then stained with 2 μM Calcein-AM and 4 μM Ethidium-homodimer for 30 min before imaging. z-stacked images were obtained using the Zeiss LSM700 Confocal microscope (Microscopy and Flow Cytometry Core, University of South Carolina) and NIKON A1 Confocal microscope (UAB High Resolution Imaging Facility). Fluorescent quantification was performed using ImageJ Fiji software to calculate the Corrected Total Cell Fluorescent (CTCF)=Integrated Density−(Area of selected cell×Mean fluorescence of background readings) per spheroid.

A2780ip2 cells = experiment: Cell survival under anchorage independence, A2780ip2; type: cell-based, human; settings: dose and time course
Method: as §1

A2780CP cells = experiment: Cell survival under anchorage independence, A2780CP; type: cell-based, human; settings: dose and time course
Method: as §1

HEY-T30 cells = experiment: Flow cytometry, Annexin V / PI apoptosis; type: cell-based, human; settings: 3D, 48 hours; 10 nM BMP9, 300 nM paclitaxel or combination
Method: 700,000 cells were seeded in 60 mm poly-hema coated culture dishes, followed by incubation with 300 nM paclitaxel and 10 nM BMP9 alone or in simultaneous combination for 48 hours. Cells were centrifuged and resuspended in 1×binding buffer, followed by incubation with Annexin V and PI according to the manufacturer's procedure manual. The stained cell suspension was added to FACS tubes containing 200 μl 1×binding buffer and measured by BD LSRFortessa flow cytometer. The data were analyzed using BD FACSDiva (Becton Dickinson, NJ, USA) software. Annexin V-positive and PI-negative cells were considered to be in the early apoptotic phase, Annexin V-negative and PI-positive cells were considered to be in the necrosis phase, cells having positive staining for both Annexin-V and PI were considered to undergo late apoptosis and cells negative for Annexin V and PI were considered to be live cells.

For “BMP9: recombinant human bone morphogenetic protein 9 (BMP9/GDF2), TGF-β family ligand”, the cell growth (PA1 cells) was “did not alter”, the omental tumor burden (PA1-luc-GFP cells; 5 mg/kg i.p. daily, 7-week study, vs vehicle) was “significantly lower” and the “overall i.p. tumor burden over time by bioluminescence imaging” value (PA1-luc-GFP cells; 5 mg/kg i.p. daily, vs vehicle) was “significant reduction”. For the same substance, the “infiltrated tumor cells in omental tumors (histology)” value (PA1-luc-GFP cells; vs vehicle) was “significantly fewer”, the “increase in TUNEL-positive cells in tumors” value (PA1-luc-GFP cells; vs vehicle-treated mice) was “a factor of two increase” and the “BMP9 in plasma (ELISA)” value [1] was “elevated”. For the same substance, the “effect on OCT4 or NANOG” value (OCT4 or NANOG) was “did not have any significant effect”, the “luciferase activity of SOX2 promoter reporter” value [2] was “significantly reduce” and the “SMAD1 binding at sites p1 and p6 (ChIP)” value (SOX2 promoter; 1 h treatment) was “significant enrichment”. The “histone H3K27me3 on the SOX2 promoter (ChIP)” value (SOX2 promoter; PA1, 1 hour rhBMP9) was “significantly enriched”, the “decrease in percentage live cells” value (HEY parental cells) was 50-65% and the “decrease in percentage live cells” value (A2780ip2 cells) was 30%. The “decrease in percentage live cells” value (A2780CP cells) was 25-55% and the apoptosis in cells (HEY-T30 cells) was 6.8%.
